Data: patent US20220089710A1, “Method of Treating Signs and Symptoms of Osteoarthritis” (Pfizer Inc., priority 2019, published 2022)

Tests used:
[1] = tested on: patients with moderate to severe OA of the hip or knee; test: Example 1: randomized, double-blind, placebo-controlled dose-titration study of SC tanezumab (16-week treatment), efficacy: WOMAC Pain, WOMAC Physical Function, PGA-OA, average daily index joint pain; assay type: in vivo, human; settings: for PGA-OA: Diff of LS Means vs placebo / PGA-OA: LS Mean change from Baseline / WOMAC Pain: Diff of LS Means vs placebo / WOMAC Pain: LS Mean change from Baseline / WOMAC Physical Function: Diff of LS Means vs placebo / WOMAC Physical Function: LS Mean change from Baseline / proportion of patients with ≥50% reduction from baseline in WOMAC Pain subscale: Week 16
Protocol: All patients provided written informed consent before participating. The study was conducted in compliance with the Declaration of Helsinki and all International Conference on Harmonisation Good Clinical Practice guidelines.
The co-primary efficacy endpoints were change from baseline to week 16 in WOMAC Pain subscale, WOMAC Physical Function subscale, and PGA-OA (Theiler et al., Osteoarthritis Cartilage. 2002; 10(6):479-481; Stengaard-Pederson et al., Rheumatology (Oxford). 2004; 43(5):592-595). WOMAC Pain and WOMAC Physical Function subscales measured symptoms within the last 48 hours; both used an 11-point numeric rating scale where higher scores indicated higher levels of pain or worse function. For PGA-OA, patients answered the question “Considering all the ways your osteoarthritis in your hip/knee affects you, how are you doing today?” on a scale from 1=“very good” to 5=“very poor.”
A key secondary efficacy endpoint was the WOMAC Pain […], responder rate at week 16. Other secondary efficacy endpoints were WOMAC Pain responder rates (≥30%, ≤70%, and ≤90%) at week 16 and patient-reported rescue medication use during weeks 2, 4, 8, 12, and 16.
Individual patient transitions in WOMAC Pain response categories (non-response defined as <30% reduction in WOMAC Pain; moderate response as ≥30%, but <50% reduction in WOMAC Pain; and substantial response as […], reduction from baseline in WOMAC Pain) between adjacent time points through the study (from week 4 to week 8, from week 8 to week 12, and from week 12 to week 16), were investigated using contingency tables. These analyses were conducted post hoc. Consistent non-responders were those patients with less than a 30% reduction from baseline in WOMAC Pain at two consecutive time points. Consistent moderate responders were those patients with at least a 30% but less than 50% reduction from baseline in WOMAC Pain at two consecutive time points. Consistent substantial responders were those patients who maintained at least a 50% reduction from baseline in WOMAC Pain at two consecutive time points.
Co-primary endpoints were analyzed in the intent-to-treat population (all patients who received ≥1 study medication dose) using an analysis of covariance model, with terms for baseline score, baseline patient diary average pain, index joint, Kellgren-Lawrence grade, and treatment group, and study site as a random effect. Missing data were handled with a multiple imputation strategy dependent on the reason for discontinuation.
Comparisons for other secondary endpoints were unadjusted. […] Safety assessments were summarized by treatment group as percentages of the treatment group population.

[2] = tested on: patients with moderate to severe OA of the hip or knee; test: Example 1: safety assessments (adverse events, neurological assessments); assay type: in vivo, human; settings: SC 2.5 mg and 2.5/5 mg regimens
Description: Safety assessments included: adverse event (AE) reporting; laboratory testing; 12-lead electrocardiogram; sitting vital signs; orthostatic blood pressure assessments; physical examinations; musculoskeletal examinations; neurological examinations reported using the Neuropathy Impairment Score (Dyck et al., Neurology. 1995; 45(6):1115-1121); Survey of Autonomic Symptoms scores (Zilliox et al., Neurology. 2011; 76(12):1099-1105); adjudication of joint safety events including total joint replacements (TJRs); and anti-drug antibody assessments. AEs were coded using MedDRA v21.0. AE severity and relationship to study treatment were assessed by the investigator.
Patients meeting protocol-specified criteria were further evaluated for peripheral neuropathy and/or sympathetic autonomic neuropathy. Neurological examinations were conducted at all clinic visits by investigators or designated physicians who received protocol-required training, and findings were recorded using the Neuropathy Impairment Score (Dyck et al).

NGF [3] = biological target: T1, NGF (Homo sapiens, UniProt P01138); settings: cell culture models; cited from earlier work
T1 sequence (P01138 122-241): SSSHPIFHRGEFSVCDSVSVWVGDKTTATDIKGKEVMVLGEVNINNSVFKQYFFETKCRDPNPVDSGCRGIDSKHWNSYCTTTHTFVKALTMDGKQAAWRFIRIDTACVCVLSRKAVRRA

[4] = tested on: patients with moderate to severe OA of the hip or knee; test: Example 1: adjudicated joint safety events (RPOA, TJR); assay type: in vivo, human
Protocol: Investigators performed musculoskeletal examinations at each study visit. Investigators evaluated patients reporting increased severe or persistent pain via eDiary lasting […] to determine if additional follow-up was needed. Post-baseline x-rays (scheduled or for cause) were assessed by the central reader for possible or probable RPOA, subchondral insufficiency fracture, primary osteonecrosis, or pathologic fracture. If warranted, magnetic resonance imaging scans were performed and/or patients were referred to an orthopedic surgeon. All cases of possible or probable joint safety events or cases of TJR for any reason were adjudicated by a blinded Adjudication Committee consisting of orthopedic surgery, rheumatology, orthopedic pathology, and musculoskeletal radiology experts.

NGF [5] = biological target: T1, NGF; settings: cited from earlier work
[6] = both tanezumab regimens pooled (n=464)

In the case of “tanezumab: humanized immunoglobulin G Type 2 (IgG2) monoclonal antibody directed against human nerve growth factor (NGF); SEQ ID NOs: 9 or 11 and 10”, the “PGA-OA: Diff of LS Means vs placebo” value ([1]; 2.5 mg SC) was −0.22, the “PGA-OA: LS Mean change from Baseline” value ([1]; 2.5 mg SC) was −0.87 and the “WOMAC Pain: Diff of LS Means vs placebo” value ([1]; 2.5 mg SC) was −0.60. For the same substance, the “WOMAC Pain: LS Mean change from Baseline” value ([1]; 2.5 mg SC) was −3.23, the “WOMAC Physical Function: Diff of LS Means vs placebo” value ([1]; 2.5 mg SC) was −0.66 and the “WOMAC Physical Function: LS Mean change from Baseline” value ([1]; 2.5 mg SC) was −3.22. For the same substance, the “proportion of patients with ≥50% reduction from baseline in WOMAC Pain subscale” value ([1]; 2.5 mg SC) was 54.5%, the “week 8 non-responders (<30% reduction in WOMAC Pain) transitioning to a moderate response at week 12” value ([1]; 2.5 mg group (10/88)) was 11.4% and the “week 8 non-responders (<30% reduction in WOMAC Pain) transitioning to a substantial response at week 12” value ([1]; 2.5 mg group (14/88)) was 15.9%. The “patients maintaining a moderate or substantial response from week 8 to week 12” value ([1]; 2.5 mg group (138/231)) was 59.7%, the “PGA-OA: Diff of LS Means vs placebo” value ([1]; 2.5/5 mg SC) was −0.25 and the “PGA-OA: LS Mean change from Baseline” value ([1]; 2.5/5 mg SC) was −0.90. For the same substance, the “WOMAC Pain: Diff of LS Means vs placebo” value ([1]; 2.5/5 mg SC) was −0.73, the “WOMAC Pain: LS Mean change from Baseline” value ([1]; 2.5/5 mg SC) was −3.37 and the “WOMAC Physical Function: Diff of LS Means vs placebo” value ([1]; 2.5/5 mg SC) was −0.89. For the same substance, the “WOMAC Physical Function: LS Mean change from Baseline” value ([1]; 2.5/5 mg SC) was −3.45, the “proportion of patients with ≥50% reduction from baseline in WOMAC Pain subscale” value ([1]; 2.5/5 mg SC) was 57.1% and the “week 8 non-responders (<30% reduction in WOMAC Pain) transitioning to a substantial response at week 12” value ([1]; 2.5/5 mg group (17/90)) was 18.9%. The “week 8 non-responders (<30% reduction in WOMAC Pain) transitioning to a moderate response at week 12” value ([1]; 2.5/5 mg group (20/90)) was 22.2%, the “patients maintaining a moderate or substantial response from week 8 to week 12” value ([1]; 2.5/5 mg group (138/233)) was 59.2% and the “overall safety and tolerability” value [2] was “generally safe and well-tolerated”. The “blocking of the activity of NGF” value (NGF [3]) was “blocks the activity of NGF effectively”, the “events adjudicated as RPOA (types 1 and 2): % of group” value ([4]; 2.5 mg group) was 2.2% and the “events adjudicated as RPOA (types 1 and 2): % of group” value ([4]; 2.5/5 mg group) was 0.4%. For the same substance, the “adjudicated RPOA type 1 (accelerated joint space narrowing): n” value ([4]; both tanezumab regimens pooled) was 4, the “adjudicated RPOA type 2 (damage or deterioration of the joint): n” value ([4]; both tanezumab regimens pooled) was 2 and the “tanezumab-treated patients with TJRs and adjudicated RPOA” value ([4]; both tanezumab regimens pooled) was 2. The “adjudicated RPOA (type 1 or 2): % of tanezumab-treated patients” value [4, 6] was 1.3%, the “adjudicated RPOA (type 1 or 2): number of tanezumab-treated patients” value [4, 6] was 6 and the “binding to human NGF” value (NGF [5]) was “high affinity and specificity”.
